Structures can show the parent of a compound that is named as a salt. A value given as a limit tells only on which side of the number the result lay.

Experiment [1] concerns the target human recombinant 5-HT6 receptor (Homo sapiens, UniProt P50406). Kind of experiment: Affinity for 5-HT6 receptor binding sites, [3H]LSD. The conditions noted are these: HEK-293 h5-HT6 membranes.
Experiment [2] has as its target T1, human recombinant 5-HT2C receptor (Homo sapiens, UniProt P28335).
T1 sequence (P28335 33-458): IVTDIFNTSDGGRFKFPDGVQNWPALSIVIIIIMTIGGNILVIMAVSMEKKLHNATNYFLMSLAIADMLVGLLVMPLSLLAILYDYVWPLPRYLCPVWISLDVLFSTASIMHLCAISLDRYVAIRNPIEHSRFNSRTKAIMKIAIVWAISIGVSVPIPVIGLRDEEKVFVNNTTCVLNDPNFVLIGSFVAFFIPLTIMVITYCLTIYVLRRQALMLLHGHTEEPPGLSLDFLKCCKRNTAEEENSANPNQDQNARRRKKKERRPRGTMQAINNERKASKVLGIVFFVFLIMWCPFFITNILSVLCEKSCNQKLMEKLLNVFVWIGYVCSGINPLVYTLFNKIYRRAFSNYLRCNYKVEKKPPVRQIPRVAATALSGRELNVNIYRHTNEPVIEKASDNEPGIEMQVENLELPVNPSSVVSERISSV
Kind of experiment: Affinity for 5HT2 receptor binding sites, h5-HT2C, [3H]mesulergine. The settings on record: CHO h5-HT2C membranes.

Experiment [3] concerns the target T2, 5-HT2A receptor (Homo sapiens, UniProt P28223). Nature of the experiment: Affinity for 5-HT2A receptor binding sites, radioligand binding with [3H]ketanserin. The conditions noted are these: read-out: Ki 5-HT2A, rat cortex membranes (assay 2) or NIH3T3 h5-HT2A membranes (assay 3), table does not say which.
Description: (§1) Sigmoidal inhibition curves were generated and fitted by nonlinear regression analysis (GraphPad Prism).
The affinity of the compounds for the rat 5-HT2A receptor was evaluated by competitive radioligand binding assay using [^3H]ketanserine as the radioligand. […] Brain tissue (rat cortex) was homogenized in 20 volumes per wet weight tissue of Tris-HCl buffer (50 mM, pH 7.4). The total membrane fraction was collected by centrifugation and washed by subsequent centrifugation runs (25 min at 25,000 g at 4° C.). Membranes were re-suspended in Tris-HCl buffer (50 mM, pH 7.4) containing 1 nM [^3H]ketanserin. Non-specific binding was estimated in the presence of 10 μM risperidone. The incubation was terminated by rapid filtration over Whatman GF/B filters pre-soaked in 0.1% polyethylenimine, and one washing step with 1 mL ice-cold Tris-HCl buffer, pH 7.4.
A further experiment addresses rat 5-HT7a receptor (Rattus norvegicus, UniProt P32305). Kind of experiment: Affinity for 5-HT7 receptor binding sites, radioligand binding with [3H]5-CT. The settings on record: membranes of HEK-293 cells with rat 5-HT7a, 1 nM [3H]5-CT. In a few lines: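 Competition binding on membranes from HEK-293 cells stably expressing rat 5-HT7a, 135 μg protein/mL in 50 mM Tris-HCl pH 7.5, 5 mM EDTA. Incubated 60 min at RT with 1 nM [3H]5-CT and increasing compound concentrations; nonspecific binding with 10 μM 5-HT. Filtration and scintillation counting, in triplicate.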

Experiment [4] addresses T3, 5-HT2B receptor (Homo sapiens, UniProt P41595). Kind of experiment: Affinity for 5HT2 receptor binding sites, h5-HT2B, [3H]mesulergine. The settings on record: CHO h5-HT2B membranes.
Description: as §1
Receptor binding was performed using the human recombinant 5-HT2A (GB: X57830), 5-HT2B (GB: Z36748) and 5-HT2C (GB: M81778) receptors. The affinity of the compounds for the 3 different human 5-HT2 receptor subtypes was evaluated by competitive radioligand binding assays using [^3H]ketanserin (h5-HT2A) or [^3H]mesulergine (h5-HT2B and h5-HT2C). The assays were performed on membranes prepared from NIH3T3 stably transfected with h5-HT2A or CHO stably transfected with h5-HT2B and h5-HT2C.
Experiment [5] addresses T2, 5-HT2A receptor. Nature of the experiment: In vitro functional assay for 5-HT2 receptor (intracellular calcium, FLIPR), 5-HT2A. In kind it is cell-based. The conditions noted are these: same cell lines as receptor binding, read-out: pKb 5-HT2A (converted). From the text:
The 5-HT2 receptors are linked to the Gq family of G proteins and to subsequent activation of phospholipase C, induction of phosphoinositide metabolism and to an increase in intracelular calcium concentration. The same cell lines as described in the previous section (receptor binding) were used for the FLIPR experiments.

In experiment [6] the target is T3, 5-HT2B receptor. Nature of the experiment: In vitro functional assay for 5-HT2 receptor (intracellular calcium, FLIPR), 5-HT2B. In kind it is cell-based. The settings on record: same cell lines as receptor binding, read-out: pKb 5-HT2B (converted). The protocol:
In vitro functional properties of these compounds on the different 5-HT2 receptor substypes were determined using fluorometric imaging plate reader (FLIPR) based calcium assay as previously described (Porter, R. H. et al. Br. J. Pharmacol. 1999, 128, 13-20; Jerman, J. C. et al. Eur. J. Pharmacol. 2001, 414, 23-30). The 5-HT2 receptors are linked to the Gq family of G proteins and to subsequent activation of phospholipase C, induction of phosphoinositide metabolism and to an increase in intracelular calcium concentration. The same cell lines as described in the previous section (receptor binding) were used for the FLIPR experiments.

T2 sequence (P28223 whole entry): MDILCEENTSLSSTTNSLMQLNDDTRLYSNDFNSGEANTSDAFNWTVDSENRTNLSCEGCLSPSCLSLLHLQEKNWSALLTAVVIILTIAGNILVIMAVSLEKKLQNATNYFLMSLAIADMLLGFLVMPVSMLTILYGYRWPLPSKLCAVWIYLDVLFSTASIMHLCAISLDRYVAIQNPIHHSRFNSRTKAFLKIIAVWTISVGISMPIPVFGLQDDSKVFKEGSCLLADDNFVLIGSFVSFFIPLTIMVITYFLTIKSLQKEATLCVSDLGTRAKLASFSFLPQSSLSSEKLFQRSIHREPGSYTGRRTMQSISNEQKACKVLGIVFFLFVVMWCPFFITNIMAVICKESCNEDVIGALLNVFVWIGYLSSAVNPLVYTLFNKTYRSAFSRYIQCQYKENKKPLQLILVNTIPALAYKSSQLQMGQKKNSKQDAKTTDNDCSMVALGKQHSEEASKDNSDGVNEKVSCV
T3 sequence (P41595 whole entry): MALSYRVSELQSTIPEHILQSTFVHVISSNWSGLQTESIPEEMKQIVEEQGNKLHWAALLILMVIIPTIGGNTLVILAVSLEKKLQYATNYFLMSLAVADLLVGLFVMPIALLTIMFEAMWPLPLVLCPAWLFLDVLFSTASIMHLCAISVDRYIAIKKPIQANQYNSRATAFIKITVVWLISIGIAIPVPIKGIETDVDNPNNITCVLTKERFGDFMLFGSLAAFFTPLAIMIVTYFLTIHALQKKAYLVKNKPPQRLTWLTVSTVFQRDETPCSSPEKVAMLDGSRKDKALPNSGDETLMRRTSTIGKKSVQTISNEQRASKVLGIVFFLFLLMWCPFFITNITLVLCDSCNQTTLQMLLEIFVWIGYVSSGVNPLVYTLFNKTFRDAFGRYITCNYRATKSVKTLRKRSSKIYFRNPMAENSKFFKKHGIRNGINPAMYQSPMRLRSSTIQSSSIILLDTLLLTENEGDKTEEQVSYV
rat 5-HT7a receptor, sequence (P32305 whole entry): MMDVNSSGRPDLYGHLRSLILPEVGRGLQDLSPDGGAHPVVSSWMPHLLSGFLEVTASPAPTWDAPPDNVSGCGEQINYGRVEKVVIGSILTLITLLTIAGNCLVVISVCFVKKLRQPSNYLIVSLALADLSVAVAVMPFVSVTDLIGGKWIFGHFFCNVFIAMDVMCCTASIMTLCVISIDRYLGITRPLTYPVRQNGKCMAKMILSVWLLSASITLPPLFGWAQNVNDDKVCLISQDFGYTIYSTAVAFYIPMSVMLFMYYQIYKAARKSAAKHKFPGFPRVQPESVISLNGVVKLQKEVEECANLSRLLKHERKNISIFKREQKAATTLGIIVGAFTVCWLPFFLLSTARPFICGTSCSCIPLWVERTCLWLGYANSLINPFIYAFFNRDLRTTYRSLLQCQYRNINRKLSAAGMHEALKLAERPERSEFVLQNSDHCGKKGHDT
human recombinant 5-HT6 receptor, sequence (P50406 whole entry): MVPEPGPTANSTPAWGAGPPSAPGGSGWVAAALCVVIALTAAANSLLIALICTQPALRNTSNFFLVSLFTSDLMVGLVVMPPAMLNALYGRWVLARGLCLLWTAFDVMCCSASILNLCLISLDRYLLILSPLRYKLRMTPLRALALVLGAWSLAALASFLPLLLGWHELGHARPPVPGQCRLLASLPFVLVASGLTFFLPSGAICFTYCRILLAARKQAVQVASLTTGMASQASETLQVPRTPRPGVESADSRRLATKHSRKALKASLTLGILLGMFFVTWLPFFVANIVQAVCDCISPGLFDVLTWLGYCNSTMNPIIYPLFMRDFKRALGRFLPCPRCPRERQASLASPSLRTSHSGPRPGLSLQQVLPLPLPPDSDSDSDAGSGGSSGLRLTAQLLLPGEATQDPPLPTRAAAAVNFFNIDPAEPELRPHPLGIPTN

As to `CN1CCc2nc(Cc3ccc(F)cc3)nc(-c3ccc(F)cc3)c2CC1` [Example 62, 2-(4-Fluoro-benzyl)-4-(4-fluoro-phenyl)-7-methyl-6,7,8,9-tetrahydro-5H-pyrimido[4,5-d]azepine], the Ki came to 27 nM in experiment [1]; 21 nM in experiment [2]; 0.75 nM at 5-HT2A receptor [3]; 5270 nM on rat 5-HT7a receptor; 21 nM at 5-HT2B receptor [4]. Besides, the results for the Kb at 5-HT2A receptor [5] and on 5-HT2B receptor [6] were 1.58 nM and 50.1 nM, respectively.

In the case of `Cc1ccc(-c2nc(C3CCCC3)nc3c2CNCC3)cc1` [Example 18, 2-Cyclopentyl-4-p-tolyl-5,6,7,8-tetrahydro-pyrido[4,3-d]pyrimidine], the Ki in experiment [1] was determined as 330 nM; in experiment [2] it was 60 nM; on 5-HT2A receptor [3] it was 10 nM; on rat 5-HT7a receptor it was 525 nM; at 5-HT2B receptor [4] it was 80 nM. Also, the Kb is 25.1 nM on 5-HT2A receptor [5] and 200 nM at 5-HT2B receptor [6].

As for `C=C1CN(C)CCc2c1nc(Cc1ccc(F)cc1)nc2-c1ccc(F)cc1` [Example 63, 2-(4-Fluoro-benzyl)-4-(4-fluoro-phenyl)-7-methyl-9-methylene-6,7,8,9-tetrahydro-5H-pyrimido[4,5-d]azepine], the Ki was 60 nM in experiment [1]; 46 nM in experiment [2]; 1.5 nM on 5-HT2A receptor [3]; more than 10000 nM on rat 5-HT7a receptor; 52 nM at 5-HT2B receptor [4]. For the same compound, the Kb on 5-HT2A receptor [5] is 15.8 nM; on 5-HT2B receptor [6], 501 nM.

Consider `CN1CCc2c(nc(Cc3ccccc3)nc2-c2ccc(F)cc2)C1` [Example 82, 2-Benzyl-4-(4-fluoro-phenyl)-7-methyl-5,6,7,8-tetrahydro-pyrido[3,4-d]pyrimidine hydrochloride], for which the Ki in experiment [1] was 230 nM; in experiment [2] it was 20 nM; on 5-HT2A receptor [3], 2 nM; at rat 5-HT7a receptor, more than 10000 nM; at 5-HT2B receptor [4], 500 nM. Also, the Kb on 5-HT2A receptor [5] is 7.94 nM; at 5-HT2B receptor [6], 3980 nM.

(Values after patent publication US7598255B2 (Janssen Pharmaceutica NV, priority 2005, dated 2009).)
